Molecules are shown by their SMILES. *1 amine or outer side, *2 acyl side, *3 side chain or, on linkers, in order; H or OH if unused. Where a SMILES comes first, the peptide text is derived from it. Bridges are numbered along the chain shown (N, C = ends). [ ]: non-standard residue; d: D form. X14 = O=C([C@H](CN1Cc2cccc(c2)B2OCC(O)[C@@H](O2)[C@@H](O)[C@H](O)[C@H](O)C1)N[*:1])[*:2]; X13 = O=C([C@H](CCNC[C@@H](O)[C@@H](O)[C@H](O)[C@H](O)C(O)CO)N[*:1])[*:2]; Trp(1-CH2COOH) = N[C@@H](Cc1cn(CC(=O)O)c2ccccc12)C(=O)O; Hyp = O=C(O)[C@@H]1C[C@@H](O)CN1; NMeNle = CCCC[C@H](NC)C(=O)O; NMeA = CN[C@@H](C)C(=O)O

The assay has as its target Programmed cell death 1 ligand/protein 1 (Homo sapiens, UniProt Q9NZQ7). In words: Binding of PD-1 to PD-L1 Using Homogenous Time-Resolved Fluorescence (HTRF) Binding Assay. As for the experimental part:
Homogenous Time-Resolved Fluorescence (HTRF) Binding Assay. The interaction of PD-1 and PD-L1 can be assessed using soluble, purified preparations of the extracellular domains of the two proteins. The PD-1 and PD-L1 protein extracellular domains were expressed as fusion proteins with detection tags, for PD-1, the tag was the Fc portion of Immunoglobulin (PD-1-Ig) and for PD-L1 it was the 6 histidine motif (PD-L1-His). All binding studies were performed in an HTRF assay buffer consisting of dPBS supplemented with 0.1% […] bovine serum albumin and 0.05% (v/v) Tween-20. For the h/PD-L1-His binding assay, inhibitors were pre-incubated with PD-L1-His (10 nM final) for 15 m in 4 μl of assay buffer, followed by addition of PD-1-Ig (20 nM final) in 1 μl of assay buffer and further incubation for 15 m. HTRF detection was achieved using europium cryptate-labeled anti-Ig (1 nM final) and allophycocyanin (APC) labeled anti-His (20 nM final). Antibodies were diluted in HTRF detection buffer and 5 μl was dispensed on top of the binding reaction. The reaction mixture was allowed to equilibrate for 30 minutes and the resulting signal (665 nm/620 nm ratio) was obtained using an EnVision fluorometer. Additional binding assays were established between the human proteins PD-1-Ig/PD-L2-His (20 & 5 nM, respectively) and CD80-His/PD-L1-Ig (100 & 10 nM, respectively).
Background: Time-resolved FRET reads energy transfer from a long-lived donor to a nearby acceptor.

Chain of Programmed cell death 1 ligand/protein 1 (Q9NZQ7 whole entry, the tested form may be a part): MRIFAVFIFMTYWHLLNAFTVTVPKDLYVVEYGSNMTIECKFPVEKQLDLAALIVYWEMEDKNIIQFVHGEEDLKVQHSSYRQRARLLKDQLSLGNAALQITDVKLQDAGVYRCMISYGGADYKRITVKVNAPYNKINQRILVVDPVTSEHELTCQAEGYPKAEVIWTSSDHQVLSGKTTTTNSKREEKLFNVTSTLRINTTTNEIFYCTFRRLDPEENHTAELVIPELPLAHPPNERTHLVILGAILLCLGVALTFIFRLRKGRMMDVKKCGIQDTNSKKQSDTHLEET
Chain of Programmed cell death 1 ligand/protein 1 (Q15116 whole entry, further chain, the tested form may be a part): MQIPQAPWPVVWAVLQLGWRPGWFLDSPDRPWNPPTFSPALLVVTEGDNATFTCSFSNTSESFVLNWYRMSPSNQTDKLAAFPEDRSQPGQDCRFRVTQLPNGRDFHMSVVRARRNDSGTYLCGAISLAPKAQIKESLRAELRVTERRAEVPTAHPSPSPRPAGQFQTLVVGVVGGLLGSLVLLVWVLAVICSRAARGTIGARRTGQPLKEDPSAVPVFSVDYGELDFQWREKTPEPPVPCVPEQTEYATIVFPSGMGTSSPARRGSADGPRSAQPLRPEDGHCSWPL

With `CCCC[C@H]1C(=O)N(C)[C@@H](CCCC)C(=O)N[C@@H](CC(C)C)C(=O)N[C@H](C(=O)NCC(N)=O)CSCC(=O)N[C@@H](Cc2ccc(O)cc2)C(=O)N(C)[C@@H](C)C(=O)N[C@@H](CC(N)=O)C(=O)N2CCC[C@H]2C(=O)N[C@H]2CNC[C@@H](O)[C@@H](O)[C@H](O)[C@@H]3OB(OCC3O)c3cccc(c3)CNCC[C@H](NC(=O)[C@H](Cc3c[nH]c4ccccc34)NC(=O)[C@@H]3C[C@@H](O)CN3C(=O)[C@H](CC(C)C)NC2=O)C(=O)N[C@@H](Cc2cn(CC(=O)O)c3ccccc23)C(=O)N1C` (some centres undefined) [US20230365627, Compound 1036], the IC50 (usually the concentration that gives 50% inhibition) came out at 9.5 nM.

With `CCCC[C@H]1C(=O)N(C)[C@@H](CCCC)C(=O)N[C@@H](CC(C)C)C(=O)N[C@H](C(=O)NCC(N)=O)CSCC(=O)N[C@@H](Cc2ccc(O)cc2)C(=O)N(C)[C@@H](C)C(=O)N[C@@H](CC(N)=O)C(=O)N2CCC[C@H]2C(=O)N[C@H]2CNC[C@@H](O)[C@@H](O)[C@H](O)[C@@H]3OB(OCC3O)c3ccc(cc3)CNCC[C@H](NC(=O)[C@H](Cc3c[nH]c4ccccc34)NC(=O)[C@@H]3C[C@@H](O)CN3C(=O)[C@H](CC(C)C)NC2=O)C(=O)N[C@@H](Cc2cn(CC(=O)O)c3ccccc23)C(=O)N1C` (some centres undefined) [US20230365627, Compound 1037], the IC50 came out at 9.5 nM. `CCCC[C@H]1C(=O)N(C)[C@@H](CCCC)C(=O)N[C@@H](CC(C)C)C(=O)N[C@H](C(=O)NCC(N)=O)CSCC(=O)N[C@@H](Cc2ccc(O)cc2)C(=O)N(C)[C@@H](C)C(=O)N[C@@H](CC(N)=O)C(=O)N2CCC[C@H]2C(=O)N[C@@H](CN2Cc3cccc(c3)B3OCC(O)[C@@H](O3)[C@@H](O)[C@H](O)[C@H](O)C2)C(=O)N[C@@H](CC(C)C)C(=O)N2C[C@H](O)C[C@H]2C(=O)N[C@@H](Cc2c[nH]c3ccccc23)C(=O)N[C@@H](CCNC[C@@H](O)[C@@H](O)[C@H](O)[C@H](O)C(O)CO)C(=O)N[C@@H](Cc2cn(CC(=O)O)c3ccccc23)C(=O)N1C` (some centres undefined) [US20230365627, Compound 1040] ({CH2CO}-Y[NMeA]NP[X14]L[Hyp]W[X13][Trp(1-CH2COOH)][NMeNle][NMeNle]LCG-NH2; thioether N-14) registered an IC50 of 5.6 nM.

Turning to `CCCC[C@H]1C(=O)N(C)[C@@H](CCCC)C(=O)N[C@@H](CC(C)C)C(=O)N[C@H](C(=O)NCC(N)=O)CSCC(=O)N[C@@H](Cc2ccc(O)cc2)C(=O)N(C)[C@@H](C)C(=O)N[C@@H](CC(N)=O)C(=O)N2CCC[C@H]2C(=O)N[C@H]2CNC[C@@H](O)[C@@H](O)[C@H](O)[C@@H]3OB(OCC3O)c3ccccc3CNCC[C@H](NC(=O)[C@H](Cc3c[nH]c4ccccc34)NC(=O)[C@@H]3C[C@@H](O)CN3C(=O)[C@H](CC(C)C)NC2=O)C(=O)N[C@@H](Cc2cn(CC(=O)O)c3ccccc23)C(=O)N1C` (some centres undefined) [US20230365627, Compound 1035], the IC50 came to 4 nM.

Values taken from BindingDB's records for patent US20230365627 (Bristol Myers Squibb, 2023).
